Data reported in US7078389B2, “Chemically modified oligonucleotide for site-directed mutagenesis” (priority 1993, dated 2006).

Assays:
[1] = system: supF gene in lambda supF DNA; test: Targeted mutagenesis of supF gene in lambda supF DNA (in vitro packaging, plaques on E. coli); details: for supF mutations per 1000 phage: lambda DNA 3 nM; for supF mutation frequency: plus UVA 1.8 J/cm^2
Experimental: (§1) Targeted mutagenesis was achieved by incubating pso-AG10 with lambda supF DNA in vitro to form triplex at positions 167 to 176 of the supF gene and bring the tethered psoralen into proximity with the targeted base pair at position 167 as shown in Table 1. The numbers in the table represent the frequency of mutations seen in either the supF gene or the cI gene in the lambda supF genome following the indicated treatment. The lambda DNA at 3 nM was incubated with or without a 1000-fold molar excess of the indicated oligonucleotides (3 μM) as described in FIG. 2.
(§2) UVA (365 nm) irradiation of selected samples was performed at a dose of 1.8 J/cm^2. A radiometer was used to measure lamp output (typical UVA irradiance of 5–7 mW/cm^2 at 320–400 nm). The DNA was packaged in vitro into phage particles, using the method of Hohn, Methods in Enzymology 68:299–309 (1979), and the phage particles were adsorbed to E. coli and grown as individual plaques to allow genetic analyses of the supF and cI genes.
(§3) Photoactivation of the psoralen generated a DNA adduct, and in vitro packaging of the psoralen-AG10. The lambda supF DNA complex allowed growth of the phage in bacteria to fix the adduct into a mutation. The phage particles were grown as individual plaques on a bacterial lawn to detect targeted mutagenesis in the supF gene and to measure the extent of non-targeted mutagenesis by screening for the function of an unrelated gene, the lambda repressor (cI) gene. Mutations in these genes yield colorless plaques among blue ones and clear plaques among turbid ones, respectively.

duplex supF DNA = test: UVA-induced covalent bond formation to duplex supF DNA; format: binding, E. coli; details: following UVA irradiation
250 bp supF PCR fragment = test: Hinf I restriction enzyme protection assay, PCR amplified supF target; format: binding, E. coli; details: 100-fold molar excess of oligonucleotide
Source text: FIG. 4 is a schematic representation showing the basis of a restriction enzyme protection assay to detect site-specific triplex formation within the supF gene. The formation of triplex DNA by psoralen-AG10 at its targeted site (bp 167–176 of the supF gene) overlaps with the Hinf I restriction site at bp 164–168 (indicated in the diagram by the box around the appropriate base pairs). Digestion of the unprotected 250 bp supF PCR fragment with Hinf I is expected to yield three fragments of sizes 150, 65, and 35 bp. In contrast, with the Hinf I site at bp 164–168 blocked by triplex formation at bp 167–176, fragments of sizes 150 and 100 bp are predicted.
The 250 bp supF target (70 nM) was incubated with a 100-fold molar excess of psoralen-AG10 as described for the binding assay. Irradiation of samples was performed at a dose of 1.8 J/cm^2. A radiometer was used to measure the lamp output (typical UVA irradiance of 5–7 mW/cm^2 at 320–400 nm). Following the binding and irradiation steps, samples were digested for 2 hours at 37° C. with Hinf I. Loading buffer was added and samples were heated 10 minutes at 55° C., and run for 1 hour on a 4.5% Nusieve gel in TAE buffer at 80 v (10 v/cm).
Site-specific formation of triplex DNA. […] This is diagrammed in FIG. 4. […] Analysis by agarose gel electrophoresis of Hinf I digestions of the 250 bp supF gene PCR fragment under various conditions was done. The supF fragment was incubated with or without psoralen-AG10 at a 100-fold molar excess, treated by 1.8 J/cm^2 of UVA irradiation, and then subjected to Hinf I digestion. Digestion of the unprotected 250 bp supF PCR fragment with Hinf I yielded three fragments of sizes 150, 65, and 35 in contrast with the uncut fragment of 250 bp. […] In the absence of psoralen-AG10, UVA light had no effect on Hinf I digestion.

[2] = system: lambda repressor (cI) gene; test: Non-targeted mutagenesis of cI gene in lambda supF DNA; set-up: species or system lambda phage; details: for cI mutations per 1000 phage: lambda DNA 3 nM, oligonucleotide 3 μM, UVA 1.8 J/cm^2
Experimental: as §1, §2, §3

[3] = oligonucleotide 3 μM (1000-fold molar excess), UVA 1.8 J/cm^2
[4] = supF fragment 70 nM, UVA 1.8 J/cm^2

| Substance | supF mutations per 1000 phage [1, 3] | supF mutations per 1000 phage ([1]; oligonucleotide 3 μM, no UVA) | supF mutagenesis without UVA ([1]; no UVA) | Difference between supF and cI mutation frequency ([1]; plus UVA) | Specificity of targeted mutagenesis considering target size of cI (765 bp) and supF (184 bp) ([1]; plus UVA) | supF mutation frequency [1] | Covalent bond to labeled duplex supF DNA (duplex supF DNA) | Protection from Hinf I digestion (250 bp supF PCR fragment; no UVA) | Protection from Hinf I digestion (250 bp supF PCR fragment; [4]) | cI mutations per 1000 phage [2] | cI mutation frequency ([2]; plus UVA 1.8 J/cm^2) | Fold lower frequency of supF mutations than pso-AG10 ([1]; plus UVA) | Mutagenesis relative to background (untreated lambda DNA) ([1]; plus UVA) |
| --- | --- | --- | --- | --- | --- | --- | --- | --- | --- | --- | --- | --- | --- |
| 4′-hydroxymethyl-4,5′,8-trimethylpsoralen-^5′AGGAAGGGGG^3′ (DNA NAGGAAGGGGG; 4'-hydroxymethyl-4,5',8-trimethylpsoralen conjugated at 5' end, further chemistry not given here) [pso-AG10] | 2.33 (263/112.872) per 1000 phage | <0.014 (0/69.000) per 1000 phage | No significant mutagenesis | approximately 100 fold | ≤ 500 fold | 0.233% | formed a covalent bond to labeled duplex supF DNA following UVA irradiation | not sufficient to prevent Hinf I digestion | protection of the Hinf I site at bp 164–168 but not the one at bp 129–133 | 0.024 (28/1,162,000) per 1000 phage | 0.0024% | – | – |
| pso-^5′GGGGGAAGGA^3′ (DNA NGGGGGAAGGA; psoralen conjugated at 5' end, further chemistry not given here) [pso-GA10, reference compound] | 0.004 (2/504.198) per 1000 phage | – | – | 5 fold | – | 0.0004% | did not | – | no protection from Hinf I cutting | 0.019 (9/483,475) per 1000 phage | – | 582 fold | barely above background |
